Counter-ions that a name gives are not always drawn.

Data set [1] concerns neutrophilic granulocytes, lymphocytes and macrophages. The data set can be described thus: Preliminary rapid test: immunostimulant effect. Format: in vivo, CFLP male mice. To be noted: oral, one-tenth of LD50; 24 hours.
The next data set concerns tumor cells. Nature of the data set: Testing of antitumor effect (overall).
In data set [2] the test system is neutrophylic granulocytes and limphocytes. Particulars: mouse, in vivo, po.
The next data set has as its system NK-yl ascites tumor. The data set can be described thus: Combinations with known cytostatic agents in NK-ly ascites tumor. Particulars: with cyclophosphamide, carnomustine, degranol, dibromo dulcitol or dibromo mannitol. The format is in vivo, CFLP mice.
Data set [3] relates to human lymphocytes. Nature of the data set: ADCC, 51Cr release from chicken erythrocytes. Format: cell-based. To be noted: for Cytotoxicity index, ADCC: 5:1, 4 hours, n=10, ± S.E. The procedure:
(§1) Lymphocytes were separated on Ficoll-Uromiro (Boyum 1968) gradient from the venal blood of healthy donors and patients suffering from malignant lymphoma and metastatizing solid tumours, respectively. When selecting the patients belonging to the latter group, the decreased ADCC and NK activity was taken into consideration. The phagocytes were removed by treatment with iron powder and a magnet.
ADCC was determined according to the method of Perlmann and Perlmann (1970) with minor modifications (Lang et al, 1981). Chicken erythrocytes labelled with 10^5 51 Cr and coated with anti-chicken erythrocyte rabbit-serum were incubated with the lymphocytes for 4 hours at 37° C. The reaction having been stopped the activity of the supernatant of the centrifuged cells was determined in a gamma-counter. The rate of chrome-release was expressed as the cytotoxicity index (CI %). This value was calculated as described in one of our earlier publications (Lang et al., 1980)--(see Table I).
Effect on ADDC. Cytotoxicity index /%/.
Ratio of effector cells; aimed cells = 5:1. Incubation time 4 hours.

Data set [4] relates to human lymphocytes. The data set can be described thus: NK activity, 51Cr release from K-562 tumor cells. Format: cell-based. Particulars: for Cytotoxicity index, NK activity: 50:1, 4 hours, ± S.E. How it is done: as §1
NK activity was determined by the method of Jondal and Pross (1975) by using minor modifications (Lang et al, 1981). K-562 tumor cells labelled by ^51 Cr were incubated with effector cells in a TC 199 liquid nutrient medium comprising 10% of decomplemented calf serum. The reaction having been stopped the radioactivity of the superntant of the centrifuged cells (chrome release) was counted in a gamma-counter. The killing of the tumor cells (cytotoxicity index %) was expressed as the difference of the test release and spontaneous release.
Ratio of effector cells: aimed cells = 50:1.
Incubation time 4 hours.

Data set [5] has as its system human polymorphonuclear leucocytes. Nature of the data set: Direct /random/ migration of human polymorphonuclear leucocytes on agarose microdrops. The format is cell-based. Particulars: seven healthy controls, ± S.E.M. The procedure:
Spontaneous (random) migration of leukocytes was measured on agarose microdrops according to the method of McCoy et al (1977) by carrying out some minor modifications (Kalmar and Gergely, 1982).
[…] agarose drops (0.2%) were placed on migration plates (Greiner, German Federal Republic). TC 199 liquid nutrient medium was added and the plates were air-tightly closed. After 24 hours the migration area were measured under a stereomicroscope. The migration area were expressed in mm^2.

The test system of data set [6] is human lymphocytes. The data set can be described thus: Mitogen-induced blastos transformation (PHA, Con A). Format: cell-based. The procedure: Lymphocytes were cultivated in a TC 199 liquid nutrient medium completed by 10% decomplemented calf serum, antibiotics and […] HEPES (Serva). 200 μl of a cell suspension comprising 2.10^5 lymphocytes were placed on a microplate (manufacturer: Sterilin Great Britain); five parallels were carried out each.
2 and 10 μg/ml, respectively of Phytohaemagglutinine (Leucoagglutinine; manufacturer Pharmacie Sweden) and 25 μg/ml of Concanavalin A (Carbiochem) were added to the cultures; the above values relate to final concentration. The cultures were cultivated at 37° C. for 72 hours. Eight hours before the termination of the end of the cultivating period 0.5 μCi ^3 H thymidine (Chemapol. Czechoslovakia) was added to the samples. Incubation was stopped by freezing the cultures. After melting the samples were filtered on an automatic harvester (Dynatech). The radioactivity of the samples was measured in a scintillation counter. The activity was expressed as c.p.m. (Tables IV and V).

Where [7] appears, read: Decreased ADCC, 6,7 × 10^-8 mole.
Where [8] appears, read: Decreased ADCC, 6,7 × 10^-9 mole.
The mark [9] stands for this setting: Decreased ADCC, 6,7 × 10^-10 mole.

In general, LD50 refers to the dose expected to kill half of the subjects tested. Turning to `C=CCSC(=NCC)NC(=N)N` [Example 34, N-aminoiminomethyl-N'-ethyl-S-allyl-isothiuronium chloride], the Immunostimulant effect result in [1] is reported as “medium (Medium effect is observed if the increase of cell number or activity over the control amounts to 20%)”. Moreover, the Antitumor effect result in the data set on tumor cells is given as “outstanding antitumor effect”. The molecule further had a Toxic effect in [2] of 0. Further, the LD50 at 24 h in “in vivo” (ip) was 84 ± 7.6 mg/kg; in “in vivo” (po) it was 780 ± 62 mg/kg.
`CC(C)N=C(NC(=N)N)SCCCCl` [Example 35, N-aminoiminomethyl-N'-isopropyl-S-(3-chloropropyl)-isothiuronium bromide]: in the data set on tumor cells, the Antitumor effect entry was “outstanding antitumor effect”.
For the molecule `N=C(N)NC(=N)SCCCCl` [Example 15, N-Aminoiminomethyl-S-(3-Chloropropyl)-Isothiuronium Bromide], the Immunostimulant effect result in [1] was “weak”. Also, in the data set on NK-yl ascites tumor, the “Antitumor effect of combination vs cytostatic agent alone” value is given as “the antitumor effect was strengthened” and the “Immunodepression of combination vs cytostatic agent alone” value is on record as “immunodepression decreased”. Besides, the Antitumor effect result with tumor cells is listed as “outstanding antitumor effect”. Moreover, in data set [2], the Toxic effect was determined as 0. In the data set “in vivo” (po), this molecule had an LD50 at 24 h of 1210 ± 180 mg/kg.
Consider `N=C(N)NC(=N)SCCCBr` [Example 28, N-aminoiminomethyl-S-(3-bromo-propyl)-isothiuronium bromide], for which the Immunostimulant effect result in [1] is “weak”. In the data set with NK-yl ascites tumor, the “Antitumor effect of combination vs cytostatic agent alone” value was “the antitumor effect was strengthened” and the “Immunodepression of combination vs cytostatic agent alone” value was “immunodepression decreased”. Also, in the data set on tumor cells, the Antitumor effect entry is “outstanding antitumor effect”. In data set [2], this molecule registered a Toxic effect of 0. This molecule also gave an LD50 at 24 h in the data set “in vivo” (po) of 980 ± 640 mg/kg.
Regarding `C=CCSC(=N)NC(=N)N` [Compound A, N-/aminoiminomethyl/-S-allyl-isothiuronium salts (halogenides)], the “Change of ADCC cytotoxicity index vs control” value is on record as “+264%” in the data set with human lymphocytes [3] (setting [7]); “+175%” in the data set with human lymphocytes [3] (setting [8]); “+126%” in the data set on human lymphocytes [3] (setting [9]); “+62%” in the data set with human lymphocytes [3] (Normal ADCC, 6,7 × 10^-8 mole); “+52%” in the data set with human lymphocytes [3] (Normal ADCC, 6,7 × 10^-9 mole); “+39%” in the data set with human lymphocytes [3] (Normal ADCC, 6,7 × 10^-10 mole). The “Cytotoxicity index, ADCC” value is 10.2 ± 2.7% with human lymphocytes [3] (setting [7]); 7.7 ± 1.9% with human lymphocytes [3] (setting [8]); 6.35 ± 1.7% in the data set with human lymphocytes [3] (setting [9]); 68.2 ± 5.3% in the data set with human lymphocytes [3] (Normal ADCC, 6,7 × 10^-8 mole); 64 ± 5.8% with human lymphocytes [3] (Normal ADCC, 6,7 × 10^-9 mole); 58.5 ± 5.2% in the data set with human lymphocytes [3] (Normal ADCC, 6,7 × 10^-10 mole). Moreover, the “Change of NK cytotoxicity index vs control” value is reported as “+68%” in the data set on human lymphocytes [4] (Decreased NK, 6.7 × 10^-9 mole/ml); “+43%” in the data set on human lymphocytes [4] (Decreased NK, 6.7 × 10^-10 mole/ml); “+113%” with human lymphocytes [4] (Decreased NK, third dose column (printed 6.7 × 10^-31 8)); “+32%” with human lymphocytes [4] (Normal NK, 6.7 × 10^-9 mole/ml); “+25%” in the data set on human lymphocytes [4] (Normal NK, 6.7 × 10^-10 mole/ml); “+45%” with human lymphocytes [4] (Normal NK, third dose column (printed 6.7 × 10^-31 8)). The “Cytotoxicity index, NK activity” value is reported as 25.3 ± 3.2% with human lymphocytes [4] (Decreased NK, 6.7 × 10^-9 mole/ml, n=7); 21.6 ± 3.0% with human lymphocytes [4] (Decreased NK, 6.7 × 10^-10 mole/ml, n=7); 32.2 ± 3.2% with human lymphocytes [4] (Decreased NK, third dose column (printed 6.7 × 10^-31 8) mole/ml, n=7); 43.4 ± 2.7% with human lymphocytes [4] (Normal NK, 6.7 × 10^-9 mole/ml, n=8); 41 ± 2.9% in the data set on human lymphocytes [4] (Normal NK, 6.7 × 10^-10 mole/ml, n=8); 47.6 ± 1.4% in the data set with human lymphocytes [4] (Normal NK, third dose column (printed 6.7 × 10^-31 8) mole/ml, n=8). Also, the Migration area is 10.51 mm^2 in data set [5] (0.1 μg/ml, non significant); 12.25 ± 1.58 mm^2 in data set [5] (1.0 μg/ml, p < 0.01); 11.24 ± 1.69 mm^2 in data set [5] (10.0 μg/ml, p < 0.01). For the same molecule, the “Blastos transformation, average c.p.m.” value with human lymphocytes [6] (healthy controls n=6, Con A 25 μg/ml, dose 0.1 μg/ml) is listed as 10564 c.p.m; in the data set on human lymphocytes [6] (healthy controls n=6, Con A 25 μg/ml, dose 1.0 μg/ml), 14089 c.p.m; in the data set with human lymphocytes [6] (healthy controls n=6, Con A 25 μg/ml, dose 10.0 μg/ml), 17038 c.p.m; in the data set with human lymphocytes [6] (healthy controls n=6, PHA 2 μg/ml, dose 0.1 μg/ml), 22233 c.p.m; in the data set on human lymphocytes [6] (healthy controls n=6, PHA 2 μg/ml, dose 1.0 μg/ml) it was 23156 c.p.m; with human lymphocytes [6] (healthy controls n=6, PHA 2 μg/ml, dose 10.0 μg/ml), 25404 c.p.m. The “Blastos transformation, average c.p.m.” value was 29969 c.p.m with human lymphocytes [6] (healthy controls n=6, PHA 10 μg/ml, dose 0.1 μg/ml); 33826 c.p.m in the data set with human lymphocytes [6] (healthy controls n=6, PHA 10 μg/ml, dose 1.0 μg/ml); 33790 c.p.m in the data set on human lymphocytes [6] (healthy controls n=6, PHA 10 μg/ml, dose 10.0 μg/ml); 1097 c.p.m in the data set with human lymphocytes [6] (patients of decreased reactivity /tumor and SLE/ n=6, Con A 25 μg/ml, dose 0.1 μg/ml); 935 c.p.m with human lymphocytes [6] (patients of decreased reactivity /tumor and SLE/ n=6, Con A 25 μg/ml, dose 1.0 μg/ml); 1023 ± 361 c.p.m with human lymphocytes [6] (patients of decreased reactivity /tumor and SLE/ n=6, Con A 25 μg/ml, dose 10.0 μg/ml). In addition, the “Blastos transformation, average c.p.m.” value is 2877 c.p.m with human lymphocytes [6] (patients of decreased reactivity /tumor and SLE/ n=6, PHA 2 μg/ml, dose 0.1 μg/ml); 4344 c.p.m in the data set on human lymphocytes [6] (patients of decreased reactivity /tumor and SLE/ n=6, PHA 2 μg/ml, dose 1.0 μg/ml); 4716 ± 1287 c.p.m in the data set on human lymphocytes [6] (patients of decreased reactivity /tumor and SLE/ n=6, PHA 2 μg/ml, dose 10.0 μg/ml); 5802 c.p.m in the data set on human lymphocytes [6] (patients of decreased reactivity /tumor and SLE/ n=6, PHA 10 μg/ml, dose 0.1 μg/ml); 6323 c.p.m with human lymphocytes [6] (patients of decreased reactivity /tumor and SLE/ n=6, PHA 10 μg/ml, dose 1.0 μg/ml); 6968 ± 1669 c.p.m in the data set on human lymphocytes [6] (patients of decreased reactivity /tumor and SLE/ n=6, PHA 10 μg/ml, dose 10.0 μg/ml).
Consider `C=C(C)CSC(=NC1CCCCC1)NC(=N)N` [Example 38, N-aminoiminomethyl-N'-cyclohexyl-S-methallyl-isothiuronium chloride], for which the Antitumor effect result with tumor cells was “outstanding antitumor effect”.
As for `C=C(C)CSC(=NC(C)C)NC(=N)N` [Example 36, N-aminoiminomethyl-N'-isopropyl-S-methallyl-isothiuronium chloride], in the data set on tumor cells, the Antitumor effect result was “outstanding antitumor effect”.
